Series [1] concerns red blood cells (5% RBC suspension). Description: Test Example 2-2: in vitro hemolytic activity test (upper limit 200 μmol/L). As to conditions: Erythrocyte, read-out: hemolysis IC50. The series is classed as cell-based. Put shortly: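 Washed defibrinated blood cells suspended at 5% in phenol-red-free Earle's medium, exposed to DMSO-dissolved compounds (top final 200 μmol/L, doubling dilutions) for 1 h at 37° C, 5% CO2. Supernatant A540 read; % hemolysis relative to water-lysed blood and DMSO control, IC50 derived, upper limit 200 μmol/L.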

For a further series, the system named is HepG2 cells. Format: cell-based. As to conditions: human, 71 h. The procedure:
The Cytotoxicith of the compounds of the present invention was evaluated by measuting cell numbers automatically using the cell image analyzer, Toxinsight® (Thermofisher Scientific).
HepG2 cells were seeded in 384-well black plates (100000 cells/mL) and allowed to attach for approximately 24 hours at 37° C. in humidified CO2 incubator. Test compounds and positive control (Fungizone®) were initially dissolved as concentrated 20 mmol/L stock solutions in DMSO and added to culture medium, to the final concentration; 1.6, 3.1, 6.3, 12.5, 25, 50, 100 μmol/L. The negative control well was treated with DMSO alone. After exposure of each test compound for approximately 71 hours, each well were added with Hoechst 33342, for staining of nuclei, diluted in D-PBS to the final concentration; 1 μg/mL, and after that, fixed with 4% paraformaldehyde. The cell number, stained with Hoechst 33342, was counted by Toxinsight® (Thermofisher Scientific) in each well. The mean value of cell number and the standard deviation (SD) was calculated (N=4).

A short description of series [2]: Test Example 4: nephrotoxicity, kidney marker gene expression by quantitative RT-PCR after intravenous administration. Format: in vivo. Conditions: mouse, kidney, mice, nephrotoxicity positive when ΔΔCt of two-third of target genes (Kim1, Timp1, Lcn2) >3. How it is done: (§1) The expression level of marker genes for nephrotoxicity was determined by quantitative RT-PCR to evaluate nephrotoxicity of the compound of the present invention. The compound of the present invention or vehicle was intravenously administered to mice and their kidneys were isolated. After removal of the kidney capsule, all of the kidneys were sliced into two equal halves, and stored at −80° C. in RNAlater® (Ambion) until use. Samples were disrupted and homogenized in QIAzol Lysis Reagent with TissueLyser (Qiagen), and total RNA was extracted using an RNeasy® Mini kit (Qiagen). Total RNA concentrations were determined to read OD260 by absorptiometer.
(§2) The level of expression of the following target genes was determined using one-step quantitative real-time PCR: Kim1, Timp1, and Lcn2. Total RNA (80 ng/2 μL) was used as the template, and TaqMan Gene Expression Assays (Applied Biosystems, for Haver1 (Kim1), assay ID: Mm00506686_m1; Timp1, Mm01341361_m1; Lcn2, Mm01324470_m1) or TaqMan Endogenous Controls (Gapdh, predesigned assay reagent supplied by ABI, Applied Biosystems) were employed as gene-specific probe and primer sets. Quantitative RT-PCR was performed using a QuantiTect™ Probe RT-PCR kit (Qiagen), and transcript levels were quantitated with an Applied Biosystems 7900HT Fast Real Time PCR System (Applied Biosystems). Reverse transcription and amplification conditions were set as follows: 50° C. for 30 min, 95° C. for 15 min, followed by 40 cycles at 95° C. for 15 s and 60° C. for 1 min. The resulting cycle threshold (Ct) value was processed based on the comparative Ct method (ΔΔCt Method), where Gapdh was used as an endogenous reference gene to normalize the expression level of target genes.
(§3) The ΔCt was calculated as follows: Ct, Gapdh−Ct, target gene.
(§4) The ΔΔCt was calculated as follows: ΔCt, treated sample−ΔCt, average of vehicle control sample.
(§5) Higher ΔΔCt values indicate higher expression rates of the target gene and therefore high risk for nephrotoxicity.

The next series concerns A. fumigatus ATCC204305. Description: Antifungal activity test, MIC by broth microdilution (CLSI M38-A2). The series is classed as cell-based. Conditions: Aspergillus fumigatus. Put shortly: (§6)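 CLSI broth microdilution in RPMI 1640 with 2% glucose, 0.165 mol/L MOPS, pH 7.0; two-fold DMSO dilutions. MIC = lowest concentration giving 100% inhibition versus growth control.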

The subject of another series is A. flavus ATCC204304. The series is described as above. The series is classed as cell-based. Conditions: Aspergillus flavus. Put shortly: as §6
The next series relates to C. albicans ATCC90028. Description: Antifungal activity test, MIC by broth microdilution (CLSI M27-A3). Conditions: Candida albicans. The series is classed as cell-based. Put shortly: as §6
In general terms: Dilution methods test growth across graded concentrations, often in twofold steps.

The test system of series [3] is red blood cells (5% RBC suspension). Description: Test Example 2-1: in vitro hemolytic activity test (upper limit 50, 80, 100 or 200 μmol/L). As to conditions: hemolysis method 200 (upper concentration 200 μmol/L); 5% RBC suspension, 37° C., one hour; read-out: hemolysis IC50. The series is classed as cell-based. Put shortly: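 A 5% suspension of washed red cells in Earle's medium was exposed to doubling dilutions of compound from DMSO, with maxima of 50, 80, 100 or 200 μmol/L final, for 1 h at 37 °C, 5% CO2. Supernatant absorbance at 540 nm was normalised to water-lysed cells. IC50 is the concentration giving 50% hemolysis; ">" values exceed the top concentration.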

The next series concerns Kim1, Timp1, and Lcn2. The experiment in a line: Test Example 4: nephrotoxicity, kidney marker gene expression by quantitative RT-PCR after intravenous administration. The series is classed as in vivo. Conditions: mice, nephrotoxicity positive when ΔΔCt of two-third of target genes (Kim1, Timp1, Lcn2) >3. How it is done: as §1, §2, §3, §4, §5
Setting [4] is: comparative example, hemolysis method 200 (upper limit 200 μmol/L), 37° C., an hour.
[5] abbreviates: A. fumigatus ATCC204305, broth microdilution, 35° C., 24-48 hours, 100% inhibition, read-out: MIC.
[6] abbreviates: A. flavus ATCC204304, broth microdilution, 35° C., 24-48 hours, 100% inhibition, read-out: MIC.
Where [7] appears, read: C. albicans ATCC90028, broth microdilution, 35° C., 24-48 hours, 100% inhibition, read-out: MIC.

Values after ≈ are worked out from the molar mass of the structure shown. Read-outs that look alike come from different tables or passages of the source.

This is an account of results in patent US10696707B2, “Polyene macrolide derivative” (Shionogi & Co., Ltd., priority 2014, dated 2020).

As for `C[C@@H]1[C@H](O)[C@@H](C)/C=C/C=C/C=C/C=C/C=C/C=C/C=C/[C@H](O[C@@H]2O[C@H](C)[C@@H](O)[C@H](N)[C@@H]2O)C[C@@H]2O[C@](O)(C[C@@H](O)C[C@@H](O)[C@H](O)CC[C@@H](O)C[C@@H](O)CC(=O)O[C@H]1C)C[C@H](O)[C@H]2C(=O)O` [AmB, Amphotericin B, reference compound], the IC50 in series [1] (setting [4]) came out at 1.6 µM. In addition, the “cytotoxicity (lowest cytotoxicity concentration)” value (“cytotoxicity” below) with HepG2 cells is <1.6 µmol/L. This molecule also gave an MTD in series [2] of 1 mg/kg.

On to `C[C@@H]1[C@H](O)[C@@H](C)/C=C/C=C/C=C/C=C/C=C/C=C/C=C/[C@H](O[C@@H]2O[C@H](C)[C@@H](O)[C@H](N)[C@@H]2O)C[C@@H]2O[C@](O)(C[C@@H](O)C[C@@H](O)[C@H](O)CC[C@@H](O)C[C@@H](O)CC(=O)O[C@H]1C)C[C@H](O)[C@H]2NC(=O)NCCN` [AmBAU, reference compound], for which the MIC came out at 1 µg/mL (≈ 1.02 µM) against A. fumigatus ATCC204305 (ATCC204305), 1 µg/mL (≈ 1.02 µM) with A. flavus ATCC204304 (ATCC204304) and 0.5 µg/mL (≈ 0.51 µM) against C. albicans ATCC90028 (ATCC90028). Further, in series [1], the IC50 worked out at 58 µM. The “cytotoxicity” value in the series with HepG2 cells was 51.0 µmol/L. In series [2], this molecule had an MTD of 12 mg/kg.

Regarding `C[C@@H]1[C@H](O)[C@@H](C)/C=C/C=C/C=C/C=C/C=C/C=C/C=C/[C@H](O[C@@H]2O[C@H](C)[C@@H](O)[C@H](N)[C@@H]2O)C[C@@H]2O[C@](O)(C[C@@H](O)C[C@@H](O)[C@H](O)CC[C@@H](O)C[C@@H](O)CC(=O)O[C@H]1C)C[C@H](O)[C@H]2NC(=O)NCCC(=O)O` [AmBCU, reference compound], the figures for the MIC with A. fumigatus ATCC204305 (setting [5]), in the series with A. flavus ATCC204304 (setting [6]) and in the series with C. albicans ATCC90028 (setting [7]) were 1 µg/mL (≈ 0.99 µM), 1 µg/mL (≈ 0.99 µM) and 0.5 µg/mL (≈ 0.495 µM), respectively. Moreover, the “cytotoxicity” value with HepG2 cells was 25.2 µmol/L. The molecule also had an MTD in series [2] of 3 mg/kg.

Take `CNC(=O)N[C@H]1[C@@H]2C[C@@H](O[C@@H]3O[C@H](C)[C@@H](O)[C@H](N)[C@@H]3O)/C=C/C=C/C=C/C=C/C=C/C=C/C=C/[C@H](C)[C@@H](O)[C@@H](C)[C@H](C)OC(=O)C[C@H](O)C[C@H](O)CC[C@@H](O)[C@H](O)C[C@H](O)C[C@](O)(C[C@@H]1O)O2` [AmBMU, reference compound]: the MIC in the series with A. fumigatus ATCC204305 (setting [5]) worked out at 1 µg/mL (≈ 1.05 µM); with A. flavus ATCC204304 (setting [6]), 1 µg/mL (≈ 1.05 µM); with C. albicans ATCC90028 (setting [7]) it was 0.5 µg/mL (≈ 0.525 µM). The IC50 in series [1] (setting [4]) is 130 µM. For the same molecule, the “cytotoxicity” value with HepG2 cells was found to be 12.5 µmol/L. This molecule also registered an MTD in series [2] of 12 mg/kg.

As for `C[C@@H]1[C@H](O)[C@@H](C)/C=C/C=C/C=C/C=C/C=C/C=C/C=C/[C@H](O[C@@H]2O[C@H](C)[C@@H](O)[C@H](N)[C@@H]2O)C[C@@H]2O[C@](O)(C[C@@H](O)C[C@@H](O)[C@H](O)CC[C@@H](O)C[C@@H](O)CC(=O)O[C@H]1C)C[C@H](O)[C@H]2NC(=O)NC1(C#N)CC1` [I-105], the IC50 in series [3] was > 200 µM. Also, the “nephrotoxicity MTD” value in the series with Kim1, Timp1, and Lcn2 was >24 mg/kg.

In the case of `C[C@@H]1[C@H](O)[C@@H](C)/C=C/C=C/C=C/C=C/C=C/C=C/C=C/[C@H](O[C@@H]2O[C@H](C)[C@@H](O)[C@H](N)[C@@H]2O)C[C@@H]2O[C@](O)(C[C@@H](O)C[C@@H](O)[C@H](O)CC[C@@H](O)C[C@@H](O)CC(=O)O[C@H]1C)C[C@H](O)[C@H]2NC(=O)N/N=C/[C@H](O)CO` [I-235], the “nephrotoxicity MTD” value with Kim1, Timp1, and Lcn2 was >24 mg/kg.

As a reminder, the IC50 is the point on the concentration scale where inhibition reaches its midpoint. A word on the MIC: it is the smallest concentration in the dilution series that meets the test's criterion for growth inhibition.
